Reference: patent US20130197032A1, “[…] COMPOUNDS FOR THE TREATMENT OF NEUROLOGICAL AND […] DISORDERS” (A. CARLSSON RESEARCH AB, priority 2010, published 2013)
Read-outs that look alike come from different tables or passages of the source.

What was measured:
[1] = molecular target: T1, D2 receptors (Homo sapiens, UniProt P14416); assay: BRET2 beta-arrestin-2 recruitment assay at D2; type: cell-based; set-up: expressed in transfected cells; host or cells: HEK-293T; conditions: percent response of reference ligand dopamine; mean ± SEM
Protocol: (§1) BRET-2 signals were measured using the multiplate reader Mithras 940LB (Berthold Technologies, Bad Wildbad, Germany) and were calculated as the ratio between the Renilla luciferase emission and the GFP2 emission corrected by the background emissions of non-transfected cells.
Each curve is representative of two to three independent experiments.

[2] = molecular target: human 5-HT2A receptors (Homo sapiens, UniProt P28223); assay: R-SAT functional assay at 5-HT2A; type: cell-based; set-up: expressed in transfected cells; host or cells: NIH-3T3; conditions: for R-SAT Eff(%): percent response of reference ligand 5-CT; for Eff (%): percent response of reference 5-CT; for potency at 5-HT2A receptors compared with D2 receptors: comparison of Table 1 and Table 2
[3] = molecular target: T2, human 5-HT1E receptor (Homo sapiens, UniProt P28566); assay: R-SAT assay 5-HT1E; type: cell-based; conditions: Table 3, 5-HT1E; percent response of reference BRL 54443
T2 construct: expressed in transfected cells; host or cells: NIH/3T3

[4] = molecular target: T1, D2 receptors; assay: R-SAT functional assay at D2; type: cell-based; set-up: expressed in transfected cells; host or cells: NIH-3T3; conditions: for R-SAT Eff(%): percent response of reference ligand pergolide
[5] = tested on: active rats; assay: Motor activity in active rats, video tracking; type: in vivo; conditions: 30, 60, 120 μmol/kg sc 30 minutes prior to recording
Protocol: Motor activity experiments in both active and habituated rats were performed on male Sprague-Dawley rats (Charles River, Germany) weighing 280-320 g. Prior to testing, rats were housed in groups of four or five in ventilated Macrolon type IV cages for approximately one week.
The rats were housed in reverse daylight cycle and all handling of the animals was performed in dim light. Test drugs were administered s.c. 30 minutes prior to registration of behavior. Single rats were introduced into rectangular arenas (l/w/h: 150×100×40 cm) illuminated indirectly by one infrared (IR) lamp (Neocom, South Korea). The rats' movements were recorded to digital (MPEG2) video files using an IR sensitive video camera (Panasonic WV-CPR480, lens: Panasonic LA-408C3) connected to a PC equipped with a MPEG-encoder (MVR1000SX, Canopus Co.).
Suspected outliers were evaluated one at the time with Grubbs' test for outliers (Grubbs F E (1969) Procedures for detecting outlying observations in samples. Technometrics 11(1):1-21).
The third series of experiments was performed in drug naive rats (FIG. 8). Rats were injected sc with saline (C, 0.9%) or either test drug 30 minutes prior to video recording. […] Behavior was registered under infrared light in rectangular arenas (150×100×40 cm) by video tracking. Motor activity is shown as velocity. Shown are means and SEM.

[6] = tested on: synthesis of dopamine in the striatum of the brain; conditions: Sonesson's thesis 1995; cited from earlier work
[7] = molecular target: T3, human alpha1A receptor (Homo sapiens, UniProt P35348); assay: R-SAT assay α1A; type: cell-based; conditions: Table 3, α1A; percent response of reference Phenylephrine
T3 construct: expressed in transfected cells; host or cells: NIH/3T3 cells, transient transfection, pSI vector
T3 sequence (P35348 1-466): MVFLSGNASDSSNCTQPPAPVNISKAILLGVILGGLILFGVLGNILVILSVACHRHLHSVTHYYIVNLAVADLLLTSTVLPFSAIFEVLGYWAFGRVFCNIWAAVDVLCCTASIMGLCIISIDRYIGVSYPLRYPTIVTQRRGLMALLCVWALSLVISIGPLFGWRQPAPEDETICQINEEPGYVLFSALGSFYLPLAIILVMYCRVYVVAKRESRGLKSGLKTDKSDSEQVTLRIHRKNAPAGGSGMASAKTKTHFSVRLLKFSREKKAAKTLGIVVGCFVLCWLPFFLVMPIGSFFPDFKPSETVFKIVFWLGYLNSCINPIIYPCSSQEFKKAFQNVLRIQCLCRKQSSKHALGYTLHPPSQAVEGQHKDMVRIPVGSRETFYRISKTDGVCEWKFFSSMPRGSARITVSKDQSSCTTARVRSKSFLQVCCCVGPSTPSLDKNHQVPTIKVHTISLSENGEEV

[8] = molecular target: 5-HT2B receptors (Homo sapiens, UniProt P41595); assay: R-SAT assay 5-HT2B; type: cell-based; set-up: expressed in transfected cells; host or cells: NIH/3T3; conditions: Table 3, 5-HT2B; for EC50: negative logarithm of EC50 in molar, read-out: pEC50 (converted); for Eff (%): percent response of reference 5-CT
[9] = Sonesson's thesis 1995; cited from earlier work
[10] = molecular target: T4, human M5 receptor (Homo sapiens, UniProt P08912); assay: R-SAT assay M5; type: cell-based; conditions: Table 3, M5; percent response of reference Carbachol
T4 construct: expressed in transfected cells; host or cells: NIH/3T3 cells, transient transfection, pSI vector

[11] = molecular target: T5, human D3 receptor (Homo sapiens, UniProt P35462); assay: R-SAT assay D3; type: cell-based; conditions: Table 3, D3
T5 construct: expressed in transfected cells

[12] = molecular target: T1, D2 receptors; assay: Dissociation rate of dopamine from D2 receptors (off-rate assay); type: binding; conditions: data not shown
[13] = clinical observation; cited from earlier work
[14] = molecular target: dopamine D2/D3 receptors; conditions: read-out: Ki, affinity for dopamine D2/D3 receptors; in vitro binding studies, background; cited from earlier work
[15] = molecular target: T1, D2 receptors; assay: BRET2 functional antagonism of dopamine at D2 (Schild analysis); type: cell-based; set-up: expressed in transfected cells; host or cells: HEK-293T
Protocol: as §1
A Schild plot (B) was constructed using the EC50 values derived from the curves in (A). The Schild plot was fitted using linear regression in GraphPad Prizm.

[16] = molecular target: T6, human D1 receptor (Homo sapiens, UniProt P21728); assay: R-SAT assay D1; type: cell-based; conditions: Table 3, D1; percent response of reference SKF 38393
T6 construct: expressed in transfected cells; host or cells: NIH-3T3 (inferred: R-SAT host; D1 is in neither method list of b200)

[17] = molecular target: T7, human 5-HT7 receptor (Homo sapiens, UniProt P34969); assay: R-SAT assay 5-HT7; type: cell-based; conditions: Table 3, 5-HT7; percent response of reference 5-CT
T7 construct: expressed in transfected cells; host or cells: NIH/3T3

[18] = Table 1, negative logarithm of EC50 in molar (M), NIH3T3 cells, mean ± SEM, read-out: R-SAT pEC50 (converted)
[19] = Table 3, 5-HT2A, negative logarithm of EC50 in molar, read-out: pEC50 (converted)

5-HT2B receptors, sequence (P41595 whole entry): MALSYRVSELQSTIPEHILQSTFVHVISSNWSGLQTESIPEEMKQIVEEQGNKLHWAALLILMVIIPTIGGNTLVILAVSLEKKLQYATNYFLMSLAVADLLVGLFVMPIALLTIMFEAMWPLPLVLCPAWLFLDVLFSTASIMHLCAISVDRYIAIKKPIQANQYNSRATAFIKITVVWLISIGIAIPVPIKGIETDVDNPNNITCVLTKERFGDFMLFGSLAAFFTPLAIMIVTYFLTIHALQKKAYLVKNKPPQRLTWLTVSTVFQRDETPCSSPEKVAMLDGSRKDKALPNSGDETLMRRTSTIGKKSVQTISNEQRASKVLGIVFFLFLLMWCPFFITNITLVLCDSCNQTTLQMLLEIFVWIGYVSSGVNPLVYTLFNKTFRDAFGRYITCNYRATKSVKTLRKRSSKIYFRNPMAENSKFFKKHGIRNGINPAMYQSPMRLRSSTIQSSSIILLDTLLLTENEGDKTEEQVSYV
human 5-HT2A receptors, sequence (P28223 whole entry): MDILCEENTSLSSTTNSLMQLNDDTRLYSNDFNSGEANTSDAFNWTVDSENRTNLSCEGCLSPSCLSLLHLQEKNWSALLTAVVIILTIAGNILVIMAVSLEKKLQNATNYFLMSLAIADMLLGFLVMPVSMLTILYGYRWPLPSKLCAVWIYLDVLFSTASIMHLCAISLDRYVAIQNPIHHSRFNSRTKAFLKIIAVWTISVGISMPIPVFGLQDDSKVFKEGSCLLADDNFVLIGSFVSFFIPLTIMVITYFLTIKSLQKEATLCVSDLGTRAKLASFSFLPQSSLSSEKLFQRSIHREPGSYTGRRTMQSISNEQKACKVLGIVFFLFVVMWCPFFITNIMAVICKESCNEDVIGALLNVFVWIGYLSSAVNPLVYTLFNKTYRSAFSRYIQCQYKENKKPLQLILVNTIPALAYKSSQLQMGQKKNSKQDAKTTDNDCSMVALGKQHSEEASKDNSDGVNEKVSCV
T1 sequence (P14416 1-414 isoform P14416-2): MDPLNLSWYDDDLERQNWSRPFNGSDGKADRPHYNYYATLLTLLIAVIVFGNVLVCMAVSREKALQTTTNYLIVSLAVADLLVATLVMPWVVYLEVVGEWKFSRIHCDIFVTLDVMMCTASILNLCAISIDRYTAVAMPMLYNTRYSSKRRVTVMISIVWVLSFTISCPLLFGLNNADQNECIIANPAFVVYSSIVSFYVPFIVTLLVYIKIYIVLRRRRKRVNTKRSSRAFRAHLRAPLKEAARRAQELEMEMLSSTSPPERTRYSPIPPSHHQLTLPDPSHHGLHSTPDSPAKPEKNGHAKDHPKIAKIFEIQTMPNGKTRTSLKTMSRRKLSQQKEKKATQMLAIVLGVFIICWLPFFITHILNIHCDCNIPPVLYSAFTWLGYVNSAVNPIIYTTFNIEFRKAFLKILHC
T2 sequence (P28566 whole entry): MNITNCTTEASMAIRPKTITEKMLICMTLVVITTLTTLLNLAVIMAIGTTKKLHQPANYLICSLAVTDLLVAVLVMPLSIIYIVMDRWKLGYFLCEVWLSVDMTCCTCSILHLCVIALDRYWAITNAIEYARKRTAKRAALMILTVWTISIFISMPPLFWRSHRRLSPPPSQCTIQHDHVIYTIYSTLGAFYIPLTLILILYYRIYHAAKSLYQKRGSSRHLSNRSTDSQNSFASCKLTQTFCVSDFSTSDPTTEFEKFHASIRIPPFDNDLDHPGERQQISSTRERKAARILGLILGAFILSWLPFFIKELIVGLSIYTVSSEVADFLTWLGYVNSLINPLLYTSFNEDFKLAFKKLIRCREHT
T5 sequence (P35462 whole entry): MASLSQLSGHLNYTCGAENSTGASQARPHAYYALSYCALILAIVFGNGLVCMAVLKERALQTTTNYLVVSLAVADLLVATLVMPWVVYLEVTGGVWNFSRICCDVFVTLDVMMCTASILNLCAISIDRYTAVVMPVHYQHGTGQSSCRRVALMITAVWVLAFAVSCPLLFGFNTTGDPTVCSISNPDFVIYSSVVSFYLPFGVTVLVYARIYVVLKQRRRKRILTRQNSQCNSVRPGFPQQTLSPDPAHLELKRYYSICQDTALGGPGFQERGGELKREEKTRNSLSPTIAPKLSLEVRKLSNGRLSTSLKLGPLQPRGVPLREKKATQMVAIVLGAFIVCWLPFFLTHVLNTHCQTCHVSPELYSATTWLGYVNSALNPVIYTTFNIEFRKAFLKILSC
T6 sequence (P21728 whole entry): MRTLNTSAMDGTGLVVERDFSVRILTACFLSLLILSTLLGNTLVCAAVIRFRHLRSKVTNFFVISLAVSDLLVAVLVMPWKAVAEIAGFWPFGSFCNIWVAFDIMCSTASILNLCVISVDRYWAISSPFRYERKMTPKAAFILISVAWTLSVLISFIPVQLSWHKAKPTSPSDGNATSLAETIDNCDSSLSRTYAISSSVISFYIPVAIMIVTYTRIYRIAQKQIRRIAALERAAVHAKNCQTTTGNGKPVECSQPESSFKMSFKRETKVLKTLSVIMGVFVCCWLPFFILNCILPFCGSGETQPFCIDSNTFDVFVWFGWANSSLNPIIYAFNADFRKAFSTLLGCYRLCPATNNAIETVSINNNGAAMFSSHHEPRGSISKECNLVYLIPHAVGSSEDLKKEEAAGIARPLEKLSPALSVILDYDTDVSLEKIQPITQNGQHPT
T4 sequence (P08912 whole entry): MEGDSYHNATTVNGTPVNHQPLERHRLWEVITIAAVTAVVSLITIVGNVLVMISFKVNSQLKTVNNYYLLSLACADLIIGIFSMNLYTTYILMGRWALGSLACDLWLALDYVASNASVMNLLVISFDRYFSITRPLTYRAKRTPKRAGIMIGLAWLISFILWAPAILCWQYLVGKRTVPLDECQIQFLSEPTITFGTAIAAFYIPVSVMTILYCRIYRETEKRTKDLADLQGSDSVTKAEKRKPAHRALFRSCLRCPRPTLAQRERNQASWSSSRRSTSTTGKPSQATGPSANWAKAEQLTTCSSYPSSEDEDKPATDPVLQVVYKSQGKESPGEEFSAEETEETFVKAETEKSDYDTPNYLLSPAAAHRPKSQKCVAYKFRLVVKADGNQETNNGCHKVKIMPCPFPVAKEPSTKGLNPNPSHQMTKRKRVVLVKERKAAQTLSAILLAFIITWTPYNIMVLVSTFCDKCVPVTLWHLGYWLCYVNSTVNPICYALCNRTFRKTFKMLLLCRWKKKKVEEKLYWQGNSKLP
T7 sequence (P34969 whole entry): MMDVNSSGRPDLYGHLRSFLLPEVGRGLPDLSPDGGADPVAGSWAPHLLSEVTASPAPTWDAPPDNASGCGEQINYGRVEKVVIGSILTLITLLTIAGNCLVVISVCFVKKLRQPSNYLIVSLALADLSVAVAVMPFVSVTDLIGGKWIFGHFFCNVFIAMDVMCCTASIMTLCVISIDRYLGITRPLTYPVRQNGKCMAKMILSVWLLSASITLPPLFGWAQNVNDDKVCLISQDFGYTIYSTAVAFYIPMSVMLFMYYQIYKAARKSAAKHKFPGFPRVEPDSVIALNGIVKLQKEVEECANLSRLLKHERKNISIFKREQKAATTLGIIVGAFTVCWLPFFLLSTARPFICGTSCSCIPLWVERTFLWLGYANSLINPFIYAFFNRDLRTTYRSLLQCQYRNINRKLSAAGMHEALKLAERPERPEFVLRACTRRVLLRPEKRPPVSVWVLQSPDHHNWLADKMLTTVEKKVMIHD

Row | SMILES | BRET2 Eff % [1] [%] | EC50 [2, 18] [M] | R-SAT Eff(%) ([2]; Table 1, mean ± SEM) | EC50 [2, 19] [M] | Eff (%) ([2]; Table 3, 5-HT2A) | potency at 5-HT2A receptors compared with D2 receptors [2] | Eff (%) [3] [%] | motor activity (velocity) in active rats [5] | Eff (%) [7] [%] | EC50 [8] [µM] | Eff (%) [8] [%] | other results
1 | CCCN1CCC[C@H](c2cccc(S(C)(=O)=O)c2)C1 [(+)-OSU6162, (3R)-3-[3-(methylsulfonyl)phenyl]-1-propylpiperidine] | 0 ± 0 | 1.58e-06 | 139 ± 14 | 1.58e-06 | 139 | more potent at 5-HT2A than D2 receptors | 5 | decreased motor activity in active rats | 22 | 5.01 | 111 | Emax at 50 µM ([4]; read-out: Eff (%), response at 50 μM): 77%; Emax at 50 µM ([4]; read-out: R-SAT Eff(%), response at 50 μM): 77%; synthesis of dopamine in the striatum of the brain [6]: weak increase in the synthesis of dopamine in the striatum of the brain; change in behavioral activity [9]: not to induce any change in behavioral activity
2 | CCCN1CCC[C@@H](c2cccc(S(C)(=O)=O)c2)C1 [(−)-OSU6162, (3S)-3-[3-(methylsulfonyl)phenyl]-1-propylpiperidine] | 0 ± 0 | 6.31e-07 | 113 ± 18 | 6.31e-07 | 113 | equipotent at D2 and 5-HT2A receptors | 5 | decreased motor activity in active rats | 15 | 0.631 | 75 | Eff (%) [10]: −5%; EC50 ([11]; negative logarithm of EC50 in molar): 3.98 µM; Eff (%) ([11]; percent response of reference Pergolide): 54%; effect on dissociation rate of dopamine from D2 receptors [12]: did not significantly alter; R-SAT pEC50 ([4]; Table 2, negative logarithm of EC50 in molar, NIH3T3 cells, mean ± SEM): 6.1 ± 0.3; EC50 ([4]; Table 2, negative logarithm of EC50 in molar, NIH3T3 cells, mean ± SEM, read-out: R-SAT pEC50 (converted)): 0.794 µM; R-SAT Eff(%) ([4]; Table 2, mean ± SEM): 30%; R-SAT Eff(%) ([4]; Table 2, mean ± SEM, listed as (−)-OSU-6162): 36 ± 3%; EC50 ([4]; Table 3, D2, negative logarithm of EC50 in molar, read-out: pEC50 (converted)): 0.794 µM; Eff (%) ([4]; Table 3, D2, percent response of reference Pergolide): 36%; hallucinogenic activity [13]: no hallucinogenic activity; Ki [14]: 0.447 µM; slope of the Schild analysis ([15]; functional antagonism of dopamine in BRET2 assays): nearly unity; Kb ([15]; read-out: pKb from the Schild analysis (converted)): 1.26 µM; Eff (%) [16]: 11%; Eff (%) [17]: 7%
